Test results published in the CheMixHub viscosity set.

Test: xn = mol fraction of the nth substance listed

COCCOCCOCCOC + CCOC(C)=O
viscosity [mPa·s], 101.3 kPa
Conditions	298.15 K	308.15 K	318.15 K
x1 = 0.0071	0.436	0.391	0.358
x1 = 0.0233	0.454	0.406	0.369
x1 = 0.0549	0.488	0.434	0.395
x1 = 0.0836	0.522	0.464	0.417
x1 = 0.1198	0.564	0.498	0.447
x1 = 0.1684	0.626	0.548	0.489
x1 = 0.2665	0.752	0.651	0.574
x1 = 0.3217	0.833	0.717	0.624
x1 = 0.3905	0.931	0.796	0.69
x1 = 0.4265	0.985	0.841	0.725
x1 = 0.4683	1.058	0.895	0.769
x1 = 0.522	1.141	0.963	0.823
x1 = 0.5558	1.196	1.002	0.856
x1 = 0.6015	1.267	1.058	0.903
x1 = 0.6458	1.34	1.119	0.949
x1 = 0.725	1.479	1.223	1.028
x1 = 0.741	1.504	1.244	1.045
x1 = 0.7798	1.572	1.297	1.085
x1 = 0.8318	1.616	1.366	1.139
x1 = 0.8823	1.754	1.433	1.194
x1 = 0.9348	1.846	1.51	1.247
x1 = 0.9606	1.89	1.542	1.276

CC(C)(C)O + CN1CCCC1=O
298.15 K, 101 kPa
Conditions	viscosity [mPa·s]
x2 = 0.0522	4.027
x2 = 0.1107	3.478
x2 = 0.2046	2.892
x2 = 0.2528	2.676
x2 = 0.3034	2.494
x2 = 0.3557	2.342
x2 = 0.4023	2.234
x2 = 0.4562	2.13
x2 = 0.4773	2.095
x2 = 0.4998	2.064
x2 = 0.5605	1.981
x2 = 0.5966	1.942
x2 = 0.6533	1.885
x2 = 0.7046	1.842
x2 = 0.7461	1.809
x2 = 0.8029	1.775
x2 = 0.8498	1.745
x2 = 0.9007	1.719
x2 = 0.9581	1.688

CCC(O)CO (stereo unspecified) + CN1CCCC1=O
Conditions	viscosity [mPa·s]
298.15 K, 101.33 kPa, x2 = 0.0654	38.07
298.15 K, 101.33 kPa, x2 = 0.1029	31.55
298.15 K, 101.33 kPa, x2 = 0.2083	19.25
298.15 K, 101.33 kPa, x2 = 0.3075	12.65
298.15 K, 101.33 kPa, x2 = 0.3987	8.95
298.15 K, 101.33 kPa, x2 = 0.4992	6.384
298.15 K, 101.33 kPa, x2 = 0.5997	4.714
298.15 K, 101.33 kPa, x2 = 0.6958	3.61
298.15 K, 101.33 kPa, x2 = 0.8118	2.663
298.15 K, 101.33 kPa, x2 = 0.9111	2.083
298.15 K, 101.33 kPa, x2 = 0.9632	1.837
308.15 K, 101 kPa, x1 = 0.0282	1.835
308.15 K, 101 kPa, x1 = 0.0564	2.019
308.15 K, 101 kPa, x1 = 0.1026	2.039
308.15 K, 101 kPa, x1 = 0.1884	2.067
308.15 K, 101 kPa, x1 = 0.3027	3.253
308.15 K, 101 kPa, x1 = 0.4056	3.955
308.15 K, 101 kPa, x1 = 0.4941	4.933
308.15 K, 101 kPa, x1 = 0.6024	6.647
308.15 K, 101 kPa, x1 = 0.6843	8.612
308.15 K, 101 kPa, x1 = 0.7939	12.61
308.15 K, 101 kPa, x1 = 0.888	17.95
308.15 K, 101 kPa, x1 = 0.9396	22.95
308.15 K, 101 kPa, x1 = 0.9764	27.1
308.15 K, 101.33 kPa, x2 = 0.05493	22.04
308.15 K, 101.33 kPa, x2 = 0.1102	17.39
308.15 K, 101.33 kPa, x2 = 0.1762	13.32
308.15 K, 101.33 kPa, x2 = 0.2999	8.57
308.15 K, 101.33 kPa, x2 = 0.3972	6.231
308.15 K, 101.33 kPa, x2 = 0.4977	4.671
308.15 K, 101.33 kPa, x2 = 0.6026	3.551
308.15 K, 101.33 kPa, x2 = 0.6974	2.829
308.15 K, 101.33 kPa, x2 = 0.8019	2.225
308.15 K, 101.33 kPa, x2 = 0.9106	1.745
308.15 K, 101.33 kPa, x2 = 0.9521	1.595
318.15 K, 101.33 kPa, x2 = 0.05598	13.51
318.15 K, 101.33 kPa, x2 = 0.1062	11.16
318.15 K, 101.33 kPa, x2 = 0.2044	7.948
318.15 K, 101.33 kPa, x2 = 0.2997	5.996
318.15 K, 101.33 kPa, x2 = 0.4011	4.469
318.15 K, 101.33 kPa, x2 = 0.4992	3.505
318.15 K, 101.33 kPa, x2 = 0.6003	2.789
318.15 K, 101.33 kPa, x2 = 0.702	2.252
318.15 K, 101.33 kPa, x2 = 0.8041	1.83
318.15 K, 101.33 kPa, x2 = 0.9081	1.49
318.15 K, 101.33 kPa, x2 = 0.951	1.373
